The subject of one data set is Swiss CD-1 mice. As to the kind of experiment: Conditioned place preference (CPP). The settings on record: 10 mg/kg i.p. In kind it is in vivo. The procedure: Male Swiss CD-1 mice (Janvier, Le Genest, France) weighing 30–35 g (6–8 weeks old), housed in temperature-controlled conditions (22 ± 1 °C) under a 12 h light/dark cycle and with free access to food and drinking water (standard laboratory diet, Panlab SL, Barcelona, Spain), were randomly assigned to an experimental group. Efforts were made to minimize animal use and suffering.
The potential of the studied compounds to induce reward was determined using a place conditioning paradigm, as described.[6] For this experiment, an apparatus with two distinct compartments, with differences in tactile and visual cues, communicated by a central corridor, has been used. In brief, CPP was performed in three phases: preconditioning test, conditioning, and postconditioning test. During the preconditioning phase (day 0), mice were placed in the middle of the corridor and had free access to both compartments for 15 min. The time spent in each compartment was recorded and monitored using a specific tracking software (Smart 3.0 Panlab, Barcelona, Spain). […] In the alternative session, mice received a saline i.p. injection and were placed for 20 min in the other compartment. Mice in the control group received a saline injection in every session. The compartment and session in which mice received the drug were randomized. On the test day (postconditioning phase), the same conditions as in the preconditioning phase were applied. A preference score was calculated as the difference between the time spent in the drug-paired compartment in the postconditioning test minus the time spent in the preconditioning phase.

A short description of data set [1]: Cytotoxicity in NGF-differentiated PC12 cells, WST-8 cell viability assay. In kind it is cell-based. The settings on record: rat, WST-8, 24 h exposure, mean ± SEM of 3–4 experiments, read-out: LC50 (approximated), cell viability. The procedure: Pheochromocytoma cells (PC12) cells were cultured in collagen-coated dishes in DMEM supplemented with heat-inactivated 5% FBS, 10% horse serum, 10 mM HEPES, 2 mM glutamine, 25 UI/mL penicillin, and 25 μg/mL streptomycin (maintenance medium) and grown at 37 °C in a humidified 5% CO2 atmosphere. Cell differentiation was performed as described[54] with minor modifications. In brief, cells were seeded (250.000 cells/well) onto 96-well plates in the maintenance medium, and after 24 h, the medium was changed to a differentiation medium containing 50 ng/mL NGF. After 24 h, neurite outgrowth was already apparent.
Treatments with different concentrations of the drug in DMEM were performed 48 h after cell differentiation. 10 μL of the tested drug was added per well, in triplicate, and cells were incubated for 24 h at 37 °C in a humidified 5% CO2 atmosphere. Thereafter, the medium was removed and immediately replaced with a maintenance medium. 10 μL of the CCK-8 Cell Counting Kit, based on 2-(2-methoxy-4-nitrophenyl)-3-(4-nitrophenyl)-5-(2,4-disulfophenyl)-2H-tetrazolium, monosodium salt (WST-8), was added per well and was incubated for 2 h at 37 °C in a humidified 5% CO2 atmosphere. This method has been defined as a good alternative to the 3-(4,5-dimethylthiazol-2-yl)-2,5-diphenyltetrazoliumbromide (MTT) assay.[63] Optical density was measured at 450 nm, using a microplate reader.
(§1) For in vitro assays, data were normalized with 100% defined as the mean of the technical replicates in the control group and expressed as mean ± SEM. Nonlinear regression was used to fit the different competition curves. Data were plotted and best fitted to a sigmoidal dose–response curve from which an IC50 or LC50 value was obtained. Transporter ratios were calculated as (1/DAT IC50: 1/SERT IC50). Although IC50 values at inhibiting 5-HT uptake for some compounds tested are expressed as >100 μM for clarity purposes, DAT/SERT ratios were calculated with the original raw data. The Cheng–Prusoff equation was used to calculate Ki (affinity): Ki = EC50/(1 + [radioligand concentration/Kd]).[65] The sample size for behavioral experiments was determined using GPower software. One-way or two-way ANOVA, and subsequent Tukey’s posthoc test, conducted only if F was significant, was used to determine the effects of cathinones on cytotoxicity, HLA, OF, and CPP experiments. The α error probability was set at 0.05 (p < 0.05). The exact size group for the behavioral experiments is shown in the corresponding figure legends. All statistic calculations were carried out using GraphPad Prism (GraphPad software, San Diego, CA, USA).
In general terms: Tetrazolium dyes change colour on reduction, which living cells bring about.

Data set [2] concerns the target T1, hSERT (Homo sapiens, UniProt P31645).
T1 construct: expressed in transfected cells; host or cells: HEK293
As to the kind of experiment: Transporter binding, [3H]imipramine binding at hSERT (HEK293 membranes). The conditions noted are these: membranes of transfected HEK293 cells; mean ± SEM of four independent experiments; read-out: [3H]imipramine binding at hSERT, Ki. The procedure: (§2) For membrane preparation, cells were harvested from 80 to 90% confluent dishes. HEK293 cells were washed with ice-cold phosphate-buffered saline (PBS), mechanically detached from the dish using a plastic scraper, and pelleted by centrifugation (400g for 10 min at 4 °C). The pellet was resuspended in HME buffer (20 mM HEPES NaOH, 1 mM EDTA, 2 mM MgCl2; pH 7.4), subjected to two freeze–thaw cycles in liquid nitrogen and homogenized through sonication at 4 °C. Membranes were then collected by centrifugation (40,000g for 30 min at 4 °C) and resuspended in an appropriate volume of HME buffer. The different membrane preparations aliquots were kept at −80 °C. Protein concentration was determined using the Bio-Rad Protein Reagent (Bio-Rad Laboratories, Hercules, CA).
(§3) Binding assays were performed as described.[6] […] This nonspecific binding also allows subtracting from the total binding values of the binding to other components such as membrane lipids or microfiber filters. Incubation was performed for 1 h at 22 °C. Binding reactions are stopped by rapid filtration of the membranes through GF/C glass microfiber filters presoaked with 0.5% polyethyleneimine and rapid washing with ice-cold wash buffer (120 mM NaCl, 2 mM MgCl2, 10 mM Tris, and 100 μM ZnCl2 for hDAT, and […], 2 mM MgCl2, and 10 mM Tris, for hSERT). Thereafter, the filters are placed into vials, a scintillation cocktail is added and trapped radioactivity is quantified by liquid scintillation counting. Specific binding of each drug to the transporter was defined as the difference between total binding (binding buffer in absence of the drug) and nonspecific binding. For each cathinone, four independent experiments carried out on duplicates were performed.
as §1, with “Although IC50 values at inhibiting 5-HT uptake for some compounds tested are expressed as >100 μM for clarity purposes, DAT/SERT ratios were calculated with the original raw data.” left out

In data set [3] the target is T2, hDAT (Homo sapiens, UniProt Q01959).
T2 construct: expressed in transfected cells; host or cells: HEK293
T2 sequence (Q01959 whole entry): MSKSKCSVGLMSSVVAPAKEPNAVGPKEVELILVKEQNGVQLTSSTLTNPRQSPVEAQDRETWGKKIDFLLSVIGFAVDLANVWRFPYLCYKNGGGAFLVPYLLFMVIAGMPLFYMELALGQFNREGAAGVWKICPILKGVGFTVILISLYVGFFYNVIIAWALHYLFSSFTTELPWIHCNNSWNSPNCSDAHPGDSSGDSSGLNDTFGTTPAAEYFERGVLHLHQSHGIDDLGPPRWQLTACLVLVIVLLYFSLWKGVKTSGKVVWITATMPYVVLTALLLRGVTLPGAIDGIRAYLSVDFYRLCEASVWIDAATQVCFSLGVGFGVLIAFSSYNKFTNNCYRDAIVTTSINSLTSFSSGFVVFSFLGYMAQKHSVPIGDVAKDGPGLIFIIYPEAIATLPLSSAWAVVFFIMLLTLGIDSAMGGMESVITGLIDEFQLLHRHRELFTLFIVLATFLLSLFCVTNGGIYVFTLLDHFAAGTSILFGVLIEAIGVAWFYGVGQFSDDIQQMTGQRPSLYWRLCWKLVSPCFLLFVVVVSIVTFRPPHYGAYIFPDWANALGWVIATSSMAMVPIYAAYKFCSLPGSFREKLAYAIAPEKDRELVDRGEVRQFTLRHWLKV
As to the kind of experiment: Transporter binding, [3H]WIN 35,428 binding at hDAT (HEK293 membranes). The settings on record: membranes of transfected HEK293 cells; mean ± SEM of four independent experiments; read-out: [3H]WIN 35,428 binding at hDAT, Ki. As to the method:
as §2, §3
as §1, with “Although IC50 values at inhibiting 5-HT uptake for some compounds tested are expressed as >100 μM for clarity purposes, DAT/SERT ratios were calculated with the original raw data.” left out

In data set [4] the target is T2, hDAT. As to the kind of experiment: Monoamine uptake inhibition, [3H]MPP+ uptake at hDAT in transfected HEK293 cells. In kind it is cell-based. The procedure:
(§4) Human embryonic kidney cells (HEK293) stably transfected with the human DAT and SERT were used for both the uptake inhibition and transporter binding assays.[6] Cells were cultured in DMEM supplemented with heat-inactivated 10% fetal bovine serum (FBS), […], and 100 U/mL penicillin at 37 °C in a 5% CO2 humidified atmosphere. Geneticin (G418; 50 μg/mL) was added to maintain the selection process. Upon approximately 80% confluence, cells were washed with 5 mL of phosphate-buffered saline (PBS) and 1 mL of trypsin/EDTA was added. After 3 min, 9 mL of DMEM was added to stop cell trypsinization. If necessary, centrifugation was performed to pellet the cells. Cells were then resuspended, counted, and seeded onto poly-D-lysine coated (24 h/prior to the experiment) 96-well plates at a density of 0.36 million cells per well for the uptake inhibition assays.
(§5) Assays were performed as previously described.[8] On the test day, the medium was removed from the cell culture 96-well plates and immediately replaced with 200 μL of Krebs-HEPES-buffer (KHB; 10 mM HEPES, 120 mM NaCl, 3 mM KCl, 2 mM CaCl2·2H2O, 2 mM MgCl2·6H2O supplemented with 20 mM D-glucose; pH 7.3). To ensure equilibrated conditions, cells were incubated with different concentrations of the drugs in KHB at a final volume of 50 μL/well for 5 min (preincubation). The preincubation solution was removed, and cells were incubated with the tritiated compounds, 0.02 μM [^3H]MPP^+ for hDAT and 0.1 μM [^3H]5-HT for hSERT, together with various concentrations of the test drugs in KHB. The uptake incubation times were 3 min for hDAT and 1 min for hSERT. The reaction was stopped by rapid removal of the incubation solution and washout with ice-cold KHB. Cells were lysed with 1% sodium dodecyl sulfate, and lysates were subsequently transferred to vials containing scintillation fluid. Radioactivity was quantified with a beta-scintillation counter (PerkinElmer, Waltham, MA, USA). The uptake in the absence of the test drugs was normalized to 100%, and the uptake in the presence of various concentrations of cathinones was expressed as a percentage thereof. […] Four independent experiments carried out on triplicates were performed.
as §1, with “Although IC50 values at inhibiting 5-HT uptake for some compounds tested are expressed as >100 μM for clarity purposes, DAT/SERT ratios were calculated with the original raw data.” left out

Data set [5] addresses T1, hSERT. As to the kind of experiment: Monoamine uptake inhibition, [3H]5-HT uptake at hSERT in transfected HEK293 cells. In kind it is cell-based. The conditions noted are these: transfected HEK293 cells; mean ± SEM of four independent experiments; read-out: [3H]5-HT uptake at hSERT, IC50. As to the method:
as §4, §5
as §1, with “Although IC50 values at inhibiting 5-HT uptake for some compounds tested are expressed as >100 μM for clarity purposes, DAT/SERT ratios were calculated with the original raw data.” left out

Where only a bound is given, the exact number is not on record here.

For orientation: Ki means the dissociation constant of the complex between target and ligand, obtained from inhibition or displacement. In general, IC50 refers to the concentration needed to halve the response being measured.

T1 sequence (P31645 whole entry): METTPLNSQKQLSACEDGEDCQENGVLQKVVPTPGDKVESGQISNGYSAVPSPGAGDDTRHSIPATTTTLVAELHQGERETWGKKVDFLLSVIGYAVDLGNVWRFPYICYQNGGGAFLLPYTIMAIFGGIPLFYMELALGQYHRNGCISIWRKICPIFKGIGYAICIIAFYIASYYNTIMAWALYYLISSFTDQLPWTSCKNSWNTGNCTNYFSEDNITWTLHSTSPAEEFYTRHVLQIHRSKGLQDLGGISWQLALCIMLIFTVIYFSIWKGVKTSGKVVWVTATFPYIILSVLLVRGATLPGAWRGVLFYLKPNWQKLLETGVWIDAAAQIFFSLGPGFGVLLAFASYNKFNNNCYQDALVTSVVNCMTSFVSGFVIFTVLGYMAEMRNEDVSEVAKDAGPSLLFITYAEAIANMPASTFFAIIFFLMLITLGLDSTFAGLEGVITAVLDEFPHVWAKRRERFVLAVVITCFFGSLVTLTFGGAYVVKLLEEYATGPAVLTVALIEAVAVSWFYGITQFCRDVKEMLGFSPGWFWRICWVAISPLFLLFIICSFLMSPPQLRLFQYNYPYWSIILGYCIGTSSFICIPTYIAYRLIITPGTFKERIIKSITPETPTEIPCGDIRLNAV

In the case of `COC(=O)[C@H]1[C@@H](OC(=O)c2ccccc2)C[C@@H]2CC[C@H]1N2C` [Cocaine, reference compound], the “CPP rewarding effect vs saline” value in the data set with Swiss CD-1 mice was “induced rewarding effects”.
With `CN[C@@H](C)Cc1ccccc1` [Meth, methamphetamine, reference compound], the CC50 at 24 h in data set [1] came out at 8730 µM.
Take `CCCC(C(=O)c1ccccc1)N1CCCC1` (stereo not drawn) [α-PVP, alpha-pyrrolidinovalerophenone, reference compound]: the figures for the Ki on hSERT [2] and on hDAT [3] were above 100 µM and 0.019 µM, respectively. Moreover, at hDAT [4] (1/DAT IC50:1/SERT IC50, calculated with the original raw data), the hDAT/hSERT inhibition ratio was 3222. For the same compound, the IC50 on hDAT [4] (transfected HEK293 cells, mean ± SEM of four independent experiments, read-out: [3H]MPP+ uptake at hDAT, IC50) was 0.124 µM; on hSERT [5], above 100 µM. The “CPP rewarding effect vs saline” value in the data set on Swiss CD-1 mice was “induced rewarding effects”.

Source of the values: PMC9936538, “Structure–Activity Relationship of N-Ethyl-Hexedrone Analogues: Role of the α-Carbon Side-Chain Length in the Mechanism of Action, Cytotoxicity, and Behavioral Effects in Mice” (ACS Chemical Neuroscience, 2023).
